Data from paper PMC8879702, “Discovery of Small Molecule Activators of Chemokine Receptor CXCR4 That Improve Diabetic Wound Healing” (International Journal of Molecular Sciences, 2022).

Legend:
Format in all cases: cell-based
[1] = biological target: T1, CXCR4 receptor (Homo sapiens, UniProt P61073); assay: primary 1536 w β-arrestin recruitment assay (CXCR4-bla U2OS cells, SDF-1α from R&D systems); parameters: host or cells: Tango CXCR4-bla U2OS cells; settings: for Emax: U2OS
Method: In our effort to identify CXCR4 activators from the NIH Molecular Library Small Molecule Repository (MLSMR), we developed a primary screening assay to measure β-arrestin recruitment to the activated G-protein coupled receptor (GPCR) by a Florescence Resonance Energy Transfer (FRET) in U2OS cells, overexpressing the CXCR4 receptor engineered with a β-lactamase (bla) reporter system. CXCR4-bla cells plated in 1536 w were stimulated in the presence of 10 µM compound concentration. […] Using this approach, we successfully screened the NIH MLSMR of 370,620 compounds (Figure 1A,B) and identified 303 hits (hit rate = 0.08%). […] These compounds were graded according to activity and structure, resulting in 86 compounds that met the criteria as potential CXCR4 agonists for further characterization (Figure 1B). The workflow for high-throughput screening and this study is illustrated in Figure 1B.
Chemical stability, synthetic tractability, solubility and complete dose response and potency criteria led to the prioritization of the 5-aryl-2-cyclopropyl oxazole scaffold, represented by primary hit Compound 2 (Table 1). The early structure–activity relationship was established around the 5-aryl-2-cyclopropyl oxazole core with commercially available analogs with diverse substituents in the sulfonanilide ring of the scaffold. […] Keeping the 2-OMe substituent constant, we screened a small set of electron withdrawing and electron rich substituents at the 5-position of the anilide ring (entries 16–19). […] The analytical data for UCUF-728 is shown in Supplemental Figures S1–S4.

[2] = biological target: T1, CXCR4 receptor; assay: cAMP signaling assay, forskolin-induced, PathHunter CHO-K1 CXCR4 cells
Method: The CXCR4 receptor is a G-protein coupled receptor (GPCR) coupled to the Gi class, whose primary role is inhibition of adenylate cyclase. We tested the ability of UCUF-728 to induce a Gi-mediated cAMP-inhibitory cellular response. […] (Figure 2B).
Forskolin at final concentration of 0.5 mM was added to all wells using the TECAN dispenser. […] of PathHunter CHO-K1 CXCR4 cells (DiscoverX, Fremont, CA, USA) were added to compounds at 3000 cells/well, centrifuged at 1000 rpm for 30 s and incubated for 30 min at room temperature. DMSO (Sigma Aldrich, St. Louis, MO, USA) was normalized to 0.5%. […] of 4X Eu-cAMP tracer working solution were added to all wells, followed by addition of 5 μL of 4X Ulight-anti-cAMP working solution to all wells. Plates were centrifuged at 1000 rpm for 1 min and incubated for 1 h at room temperature, then read using CLARIOstar Plus (BMG LABTECH Inc., Cary, NC, USA) Lance CAMP protocol.

[3] = system: CEM-CCRF cells; assay: 96 wells transwell migration assay in CEM human lymphoblast cells
From the text: Thus, to confirm CXCR4 functional activity, we evaluated UCUF-728 in a 96 wells transwell migration assay in CEM human lymphoblast cells. […] (Supplemental Figure S7). From the analog structure–activity relationship studies and characterization studies in the chemotaxis assay, cAMP signaling and CXCR4 binding assay, we identified UCUF-728 as a potent and functionally selective CXCR4 receptor modulator.
CEM-CCRF (ATCC CCL-119) were suspended in RPMI 1640 (Corning; 10-040-CV) at 5.0 × 10^5 cells/mL and allowed to incubate in cell culture incubator at 37 °C with 5% CO2 for one hour. […] Following 1 h cell incubation and compound dispensing, 150 μL of RPMI 1640 supplemented with 2% Fetal Bovine Serum was added to each well of the compound receiver tray, and 50 μL of 5 × 10^5 cells/mL cell suspension in RPMI were added to each well of the top filter plate. Plates were reassembled and placed in a cell culture incubator at 37 °C with 5% CO2 for three hours. After incubation, Multi-Screen plate was disassembled and 100 μL of solution was collected from compound receiver tray and transferred to 96 well luminescent plate and an equal volume of ATPLite 1step luminescence reagent (Perkin Elmer, Waltham, MA, USA) was added to each well. Luminescence was measured using the CLARIOstar Plus (BMG LABTECH Inc., Cary, NC, USA).

T1 sequence (P61073 whole entry): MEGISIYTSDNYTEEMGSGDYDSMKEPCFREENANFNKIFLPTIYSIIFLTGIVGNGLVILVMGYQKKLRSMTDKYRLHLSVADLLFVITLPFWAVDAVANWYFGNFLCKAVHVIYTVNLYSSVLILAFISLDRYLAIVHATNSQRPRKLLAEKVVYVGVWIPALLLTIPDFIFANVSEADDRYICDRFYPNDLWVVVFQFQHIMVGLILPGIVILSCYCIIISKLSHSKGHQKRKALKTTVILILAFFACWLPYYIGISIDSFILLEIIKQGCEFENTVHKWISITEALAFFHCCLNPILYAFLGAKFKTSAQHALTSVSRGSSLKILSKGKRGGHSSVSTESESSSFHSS

| Compound | EC50 [1] [µM] | Emax [1] [%] | also measured |
| --- | --- | --- | --- |
| COc1cc(NS(=O)(=O)c2ccc(-c3cnc(C4CC4)o3)cc2)cc(OC)c1 [Compound 21] | 5.6 | 48 |  |
| Cc1ccccc1NS(=O)(=O)c1ccc(-c2cnc(C3CC3)o2)cc1 [Compound 2] | 5.9 | 27 |  |
| O=S(=O)(Nc1ccccc1)c1ccc(-c2cnc(C3CC3)o2)cc1 [Compound 1] | > 80 |  |  |
| COc1ccc(NS(=O)(=O)c2ccc(-c3cnc(C4CC4)o3)cc2)cc1OC [Compound 20] | > 80 |  |  |
| O=S(=O)(Nc1ccccc1F)c1ccc(-c2cnc(C3CC3)o2)cc1 [Compound 7] | > 80 |  |  |
| O=S(=O)(Nc1ccccc1Cl)c1ccc(-c2cnc(C3CC3)o2)cc1 [Compound 6] | 22 | 35 |  |
| Cc1ccc(NS(=O)(=O)c2ccc(-c3cnc(C4CC4)o3)cc2)c(C)c1 [Compound 12] | 3.4 | 38 |  |
| c1cc(CN2CCCNCCNCCCNCC2)ccc1CN1CCCNCCNCCCNCC1 [AMD3100, reference compound] |  |  | block of SDF-1α inhibition of forskolin-induced cAMP ([2]; maximal response at 40 nM SDF-1α): dose-dependently blocked; IC50 ([3]; Homo sapiens, normalized to media only and 6nM SDF-1a, read-out: logIC50 inhibition of migration (converted)): 0.0316 µM |
| CCOc1ccc(NS(=O)(=O)c2ccc(-c3cnc(C4CC4)o3)cc2)cc1 [Compound 9] | 44.3 | 38 |  |
| Cc1ccc(NS(=O)(=O)c2ccc(-c3cnc(C4CC4)o3)cc2)cc1C [Compound 11] | > 10 |  |  |
| COc1cccc(NS(=O)(=O)c2ccc(-c3cnc(C4CC4)o3)cc2)c1 [Compound 8] | > 80 |  |  |
| COc1ccc(F)cc1NS(=O)(=O)c1ccc(-c2cnc(C3CC3)o2)cc1 [Compound 17] | 7.3 | 42 |  |
| SDF-1α |  |  | inhibition of forskolin-induced adenylate cyclase (cAMP signaling) ([2]; CHO-K1 CXCR4 overexpressed cells): inhibited forskolin-induced adenylate cyclase; induction of cell migration ([3]; compound in lower channel, 3 h): induced migration in the typical bell-shaped curve |
| COc1ccccc1NS(=O)(=O)c1ccc(-c2cnc(C3CC3)o2)cc1 [Compound 4] | 6.1 | 45 |  |

Now from value to compound, other results behind:

| EC50 [1] [µM] | Emax [1] [%] | Compound | also measured |
| --- | --- | --- | --- |
| 0.7 | 42 | Cc1ccc(C)c(NS(=O)(=O)c2ccc(-c3cnc(C4CC4)o3)cc2)c1 [Compound 13] |  |
| 2.6 | 38 | CCc1ccccc1NS(=O)(=O)c1ccc(-c2cnc(C3CC3)o2)cc1 [Compound 3] |  |
| 1.9 | 40 | Cc1cccc(NS(=O)(=O)c2ccc(-c3cnc(C4CC4)o3)cc2)c1C [Compound 10] |  |
| 3.1 | 39 | Cc1cc(C)cc(NS(=O)(=O)c2ccc(-c3cnc(C4CC4)o3)cc2)c1 [Compound 15] |  |
| 1.65 | 47 | COc1ccc(Cl)cc1NS(=O)(=O)c1ccc(-c2cnc(C3CC3)o2)cc1 [Compound 16] |  |
| 0.9 | 48 | COc1ccc(C)cc1NS(=O)(=O)c1ccc(-c2cnc(C3CC3)o2)cc1 [Compound 18] |  |
| 0.6 | 45 | Cc1cccc(C)c1NS(=O)(=O)c1ccc(-c2cnc(C3CC3)o2)cc1 [Compound 14] |  |
| 1 | 46 | CCOc1ccccc1NS(=O)(=O)c1ccc(-c2cnc(C3CC3)o2)cc1 [Compound 5] |  |
